Experimental findings from US4623662A, “Antiatherosclerotic ureas and thioureas” (American Cyanamid Company, priority 1985, dated 1986) are described below.

The target of experiment [1] is T1, fatty acyl CoA:cholesterol acyl transferase (ACAT) (Rattus norvegicus, UniProt Q7TQM4).
T1 construct: the enzyme was derived from microsomes isolated from rat intestinal mucosal cells; from tissue; host or cells: rat intestinal mucosal cells, microsomes
T1 sequence (Q7TQM4 1-524): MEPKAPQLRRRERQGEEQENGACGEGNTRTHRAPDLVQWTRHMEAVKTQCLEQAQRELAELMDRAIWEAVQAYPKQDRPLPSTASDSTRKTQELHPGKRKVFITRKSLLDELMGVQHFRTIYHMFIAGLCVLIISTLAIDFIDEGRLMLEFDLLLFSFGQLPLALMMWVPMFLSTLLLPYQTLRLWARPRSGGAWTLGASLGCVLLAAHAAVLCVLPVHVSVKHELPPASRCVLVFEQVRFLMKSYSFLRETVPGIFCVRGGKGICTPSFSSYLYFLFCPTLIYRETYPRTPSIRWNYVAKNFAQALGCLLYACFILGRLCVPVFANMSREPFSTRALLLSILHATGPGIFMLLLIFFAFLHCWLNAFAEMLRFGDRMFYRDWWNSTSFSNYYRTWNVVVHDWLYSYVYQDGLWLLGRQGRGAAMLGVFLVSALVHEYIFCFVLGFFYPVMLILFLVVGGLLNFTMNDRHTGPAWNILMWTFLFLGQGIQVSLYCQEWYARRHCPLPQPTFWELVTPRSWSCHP
The experiment can be described thus: Inhibition of ACAT from microsomes isolated from rat intestinal mucosal cells. The experiment is classed as biochemical. The protocol:
The compounds were tested for their ability to inhibit ACAT according to the following procedure: rat adrenals were homogenized in 0.2M monobasic potassium phosphate buffer, pH 7.4, and centrifuged at 1,000 times gravity for 15 minutes at 5° C. The supernatant, containing the microsomal fraction, served as the source of the cholesterol-esterifying enzyme, fatty acyl CoA:cholesterol acyl transferase (ACAT). A mixture comprising 50 parts of adrenal supernatant, 10 parts of bovine serum albumin (50 mg/ml), 3 parts of test compound (final concentration 5.2 μg/ml), and 500 parts of buffer was preincubated at 37° C. for 10 minutes. After treatment with 20 parts of oleoyl CoA (^14 C-0.4 μCi), the mixture was incubated at 37° C. for 10 minutes. A control mixture, omitting the test compound, was prepared and treated in the same manner. The lipids from the incubation mixture was extracted into an organic solvent and separated by thin-layer chromatography. The cholesteryl ester fraction was counted in a scintillation counter. This procedure is a modification of that described by Hashimoto, et al., Life Scie., 12 (Part II), 1-12 (1973).
The compounds of this invention were tested in vitro at several concentrations for their ability to inhibit the enzyme fatty acyl CoA:cholesterol acyl transferase (ACAT) using the hereinabove described procedure except that the enzyme was derived from microsomes isolated from rat intestinal mucosal cells rather than rat adrenal cells. The results of this test on representative compounds of this invention are given in Table III in terms of IC50 (μM), that concentration which produced 50% inhibition of the ACAT enzyme.

For experiment [2], the system named is cholesterol absorption. The experiment can be described thus: Inhibition of cholesterol absorption in rats fed 1% cholesterol:0.5% cholic acid diet. The experiment is classed as in vivo, male Sprague-Dawley rats. The following applies: po, 336 h, rat, 2 weeks; for response vs control in vivo at 0.03 %: dose .03% of the diet. In short, it runs like this: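 Male Sprague-Dawley rats (150-170 g) fed 1% cholesterol:0.5% cholic acid diet for 2 weeks with compound at 0.001, 0.003, 0.01 or 0.03% of diet. Serum cholesterol measured enzymatically; liver cholesterol from saponified large-lobe sample after petroleum ether extraction. Liver and serum sterol expressed as percent of untreated controls.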

For experiment [3], the target named is T2, fatty acyl CoA: cholesterol acyl transferase (ACAT) (Rattus norvegicus, UniProt O70536).
T2 construct: The supernatant, containing the microsomal fraction, served as the source of the cholesterol-esterifying enzyme; from tissue; host or cells: rat adrenals, supernatant of 1,000 x g centrifugation containing the microsomal fraction
T2 sequence (O70536 1-545): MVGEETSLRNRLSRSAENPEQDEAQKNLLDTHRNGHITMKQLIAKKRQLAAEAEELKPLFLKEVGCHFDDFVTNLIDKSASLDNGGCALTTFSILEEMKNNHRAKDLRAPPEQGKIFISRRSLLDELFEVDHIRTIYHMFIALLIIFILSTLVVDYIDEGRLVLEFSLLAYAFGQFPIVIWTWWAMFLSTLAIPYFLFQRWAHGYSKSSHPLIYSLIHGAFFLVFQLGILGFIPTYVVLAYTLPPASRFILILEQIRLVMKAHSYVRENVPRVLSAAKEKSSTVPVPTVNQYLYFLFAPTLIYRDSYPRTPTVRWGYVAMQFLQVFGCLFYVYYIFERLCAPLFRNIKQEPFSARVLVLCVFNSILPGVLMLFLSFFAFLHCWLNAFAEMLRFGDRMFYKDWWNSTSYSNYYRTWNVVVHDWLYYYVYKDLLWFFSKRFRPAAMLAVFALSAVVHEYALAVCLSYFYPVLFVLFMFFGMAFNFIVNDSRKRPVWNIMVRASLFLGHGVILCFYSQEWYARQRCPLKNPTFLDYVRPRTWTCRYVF
The experiment can be described thus: Inhibition of fatty acyl CoA:cholesterol acyl transferase (ACAT), rat adrenal enzyme. In kind it is biochemical. In short, it runs like this:
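Enzyme source was the microsomal supernatant of rat adrenal homogenate (0.2M potassium phosphate, pH 7.4) with BSA, preincubated with compound (5.2 μg/ml final for single-point) for 10 min at 37° C. Then [14C]oleoyl CoA added, 10 min at 37° C. TLC-separated cholesteryl ester was counted; percent inhibition versus control, IC50 from several concentrations.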

[4] abbreviates: rat adrenal ACAT, final concentration 5.2 μg/ml, read-out: % Inhibition.
Where [5] appears, read: read-out: LS (liver sterol), percentage of control values.
Setting [6] is: read-out: SS (serum sterol), percentage of control values.

Where two headings read alike, the source gives them in different places.

In experiment [1], `CCCCCCCN(Cc1ccc(COCCC(C)C)cc1)C(=O)Nc1ccc(F)cc1F` [1-(n-Heptyl)-1-[4-(isopentyloxymethyl)benzyl]-3-(2,4-difluorophenyl)urea] showed an IC50 of 330 nM. Further, in experiment [2] (dose .01% of the diet, read-out: LS (liver sterol), percentage of control values), the response vs control in vivo at 0.01 % was determined as 60%.
In experiment [1], `CCCCCCCN(Cc1ccc(CC(=O)O)cc1)C(=O)Nc1ccc(F)cc1F` [1-(n-Heptyl)-1-[4-(carboxymethyl)benzyl]-3-(2,4-difluorophenyl)urea] returned an IC50 of 24000 nM.
The molecule `CCCCCCCN(Cc1ccc(CC(=O)OC)cc1)C(=O)Nc1ccc(F)cc1F` [1-(n-Heptyl)-1-[4-(carbomethoxymethyl)benzyl]-3-(2,4-difluorophenyl)urea] had an IC50 in experiment [1] of 1750 nM.
Same read-out and setting: the result for `CCCCCCCN(Cc1ccc(CCCCSC(C)C)cc1)C(=O)Nc1ccc(F)cc1F` [1-(n-Heptyl)-1-[4-(4-isopropylthiobutyl)benzyl]-3-(2,4-difluorophenyl)urea] reads 3270 nM.
Consider `CCCCc1ccc(CN(Cc2ccccc2)C(=O)Nc2c(C)cc(C)cc2C)cc1` [1-Benzyl-1-(4-n-butylbenzyl)-3-(2,4,6-trimethylphenyl)urea], for which the inhibition at 5.2 µg/mL in experiment [3] (setting [4]) was 92.8%. Besides, the response vs control in vivo at 0.03 % in experiment [2] (setting [5]) was determined as 13%; in experiment [2] (setting [6]) it was 53%.
In the case of `CCCCOc1ccc(CN(CCC(C)(C)C)C(=O)Nc2c(Cl)cc(Cl)cc2Cl)cc1` [1-(3,3-Dimethylbutyl)-1-[4-(n-butoxy)benzyl]-3-(2,4,6-trichlorophenyl)urea], in experiment [3], the inhibition at 5.2 µg/mL turned out to be 90%. Further, the figures for the response vs control in vivo at 0.03 % in experiment [2] (setting [5]) and in experiment [2] (setting [6]) were 20% and 52%, respectively.
For `CC(C)(C)CCN(Cc1ccc(Cl)cc1)C(=O)Nc1c(Cl)cc(Cl)cc1Cl` [1-(3,3-Dimethylbutyl)-1-(4-chlorobenzyl)-3-(2,4,6-trichlorophenyl)urea] the same measures were 90%, 41% and 73%.
Regarding `CCCCCOc1ccc(CN(Cc2ccc(CCCCC)cc2)C(=O)Nc2ccc(Cl)cc2Cl)cc1` [1-(4-n-Pentylbenzyl)-1-(4-n-pentyloxybenzyl)-3-(2,4-dichlorophenyl)urea], the inhibition at 5.2 µg/mL in experiment [3] (setting [4]) stood at 85%. The values for the response vs control in vivo at 0.03 % in experiment [2] (setting [5]) and in experiment [2] (setting [6]) were 92% and 91%, respectively.
Regarding `CCCCc1ccc(CN(CCCCCCO)C(=O)Nc2ccc(Cl)cc2C)cc1` [1-[(4-Butylphenyl)methyl]-3-(4-chloro-2-methylphenyl)-1-(6-hydroxyhexyl)urea], at 5.2 µg/mL the inhibition in experiment [3] was 90%. Also, the results for the response vs control in vivo at 0.03 % in experiment [2] (setting [5]) and in experiment [2] (setting [6]) were 53% and 6%, respectively.
The matching figures for `Cc1cc(Cl)ccc1NC(=O)N(CCC(C)(C)C)Cc1cccs1` [3-(4-Chloro-2-methylphenyl)-1-(3,3-dimethylbutyl)-1-(2-thienylmethyl)urea]: 90%, 64% and 62%.
For `CCCCc1ccc(CN(CCCCCCO)C(=O)Nc2cc(C)c(C)cc2C)cc1` [1-[(4-Butylphenyl)methyl]-1-(6-hydroxyhexyl)-3-(2,4,5-trimethylphenyl)urea] the same measures were 90%, 39% and 57%.
For `CCCCc1ccc(CN(CCCCCCC#N)C(=O)Nc2c(Cl)cc(Cl)cc2Cl)cc1` [1-[(4-Butylphenyl)methyl]-1-(6-cyanohexyl)-3-(2,4,6-trichlorophenyl)urea] the same measures were 90%, 35% and 31%.
Regarding `CCCCCCCN(Cc1ccc(CCCC)cc1)C(=O)Nc1cc(C)c(Cl)cc1C` [1-(n-Heptyl)-1-[4-(n-butyl)benzyl]-3-(4-chloro-2,5-dimethylphenyl)urea], in experiment [3], testing at 5.2 µg/mL gave an inhibition of 90%. Also, the response vs control in vivo at 0.03 % was 19% in experiment [2] (setting [5]) and 48% in experiment [2] (setting [6]).
Take `CCCCCOc1ccc(CN(Cc2ccc(CCCCC)cc2)C(=O)Nc2cc(Cl)c(Cl)cc2Cl)cc1` [1-(4-n-Pentylbenzyl)-1-(4-n-pentyloxybenzyl)-3-(2,4,5-trichlorophenyl)urea]: the inhibition at 5.2 µg/mL in experiment [3] (setting [4]) came to 80%. Besides, the response vs control in vivo at 0.03 % in experiment [2] (setting [5]) came to 92%; in experiment [2] (setting [6]), 85%.
The matching figures for `CCCCCCCN(Cc1ccc(OCCCC)cc1)C(=O)Nc1ccc(Cl)cc1C` [1-(n-Heptyl)-1-(4-n-butoxybenzyl)-3-(2-methyl-4-chlorophenyl)urea]: 91.7%, 15% and 53%.
Take `CCCCc1ccc(CN(CCCCC[Si](C)(C)C)C(=O)Nc2ccc(F)cc2F)cc1` [1-[(4-Butylphenyl)methyl]-3-(2,4-difluorophenyl)-1-[5-(trimethylsilyl)pentyl]urea]: in experiment [3], the inhibition at 5.2 µg/mL is 90%. In addition, the response vs control in vivo at 0.03 % in experiment [2] (setting [5]) amounted to 57%; in experiment [2] (setting [6]) it was 62%.
The matching figures for `CCCCc1ccc(CN(CCCCCCC#N)C(=O)Nc2cc(C)c(C)cc2C)cc1` [1-[(4-Butylphenyl)methyl]-1-(6-cyanohexyl)-3-(2,4,5-trimethylphenyl)urea]: 90%, 28% and 48%.
Take `CCCCN(Cc1ccccc1)C(=O)Nc1c(Cl)cc(Cl)cc1Cl` [1-Benzyl-1-( -n-butyl)-3-(2,4,6-trichlorophenyl)urea]: in experiment [3] (setting [4]), the inhibition at 5.2 µg/mL worked out at 87.8%. Also, the values for the response vs control in vivo at 0.03 % in experiment [2] (setting [5]) and in experiment [2] (setting [6]) were 32% and 48%, respectively.
Molecule `CCCCc1ccc(CN(CCCCC(C)(C)C)C(=O)Nc2ccc(F)cc2F)cc1` [1-(5,5-Dimethylhexyl)-1-[4-(n-butyl)benzyl]-3-(2,4-difluorophenyl)urea] came in with an inhibition at 5.2 µg/mL in experiment [3] of 90%. The response vs control in vivo at 0.03 % in experiment [2] (setting [5]) worked out at 58%; in experiment [2] (setting [6]), 59%.
With `CCCCCCCN(Cc1ccc(CCCC)cc1)C(=O)Nc1ccc(Cl)cc1C` [1-(n-Heptyl)-1-(4-n-butylbenzyl)-3-(2-methyl-4-chlorophenyl)urea], the inhibition at 5.2 µg/mL in experiment [3] (setting [4]) worked out at 92.5%. Moreover, the response vs control in vivo at 0.03 % in experiment [2] (setting [5]) amounted to 16%; in experiment [2] (setting [6]), 35%.
`CCCCCCCN(Cc1cccs1)C(=O)Nc1c(Cl)cc(Cl)cc1Cl` [1-Heptyl-1-(2-thienylmethyl)-3-(2,4,6-trichlorophenyl)urea]: in experiment [3], the inhibition at 5.2 µg/mL is 90%. For the same molecule, the response vs control in vivo at 0.03 % is 28% in experiment [2] (setting [5]) and 56% in experiment [2] (setting [6]).
